Source: patent US11608328B2, “Chemical probes to identify anti-mycobacterial MmpL3 inhibitors” (Creighton University, priority 2019, dated 2023)
Converted amounts (≈) assume the structure as drawn. “And” between values parts separate entries of the source, which are not always exact repeats. Identical values can stand only once. “Also recorded” adds a separate entry of the source. Like-named read-outs stand apart in the source and are kept apart here. Marks after values point to notes of the source that are not given here.

Columns and labels:
[1] = tested on: MsmgΔmmpL3 expressing wild-type mmpL3tb; assay: microbe, parasite or virus in culture; type: cell-based; details: Mycolicibacterium smegmatis, MmpL3 WT, read-out: MIC
[2] = tested on: MsmgΔmmpL3 expressing mmpL3tb L189R; type: cell-based, Mycobacterium smegmatis
[3] = tested on: MsmgΔmmpL3 expressing mmpL3tb G253E; type: cell-based, Mycobacterium smegmatis
[4] = tested on: MsmgΔmmpL3 expressing mmpL3tb S288T; type: cell-based, Mycobacterium smegmatis
[5] = tested on: MsmgΔmmpL3 expressing mmpL3tb S309C; type: cell-based, Mycobacterium smegmatis
[6] = tested on: MsmgΔmmpL3 expressing mmpL3tb T311I; type: cell-based, Mycobacterium smegmatis
[7] = tested on: MsmgΔmmpL3 expressing mmpL3tb Q372R; type: cell-based, Mycobacterium smegmatis
[8] = tested on: MsmgΔmmpL3 expressing mmpL3tb L567P; type: cell-based, Mycobacterium smegmatis
[9] = tested on: MsmgΔmmpL3 expressing mmpL3tb S591I; type: cell-based, Mycobacterium smegmatis
[10] = tested on: MsmgΔmmpL3 expressing mmpL3tb F644C; type: cell-based, Mycobacterium smegmatis
[11] = tested on: MsmgΔmmpL3 expressing mmpL3tb V684G; type: cell-based, Mycobacterium smegmatis
[12] = tested on: MsmgΔmmpL3 expressing mmpL3tb V684A; type: cell-based, Mycobacterium smegmatis
purified MmpL3tb protein = purified MmpL3tb protein (Mycobacterium tuberculosis, UniProt P9WJV5); assay: Surface Plasmon Resonance binding to immobilized MmpL3tb; details: for ka2 / kd1 / kd2 / ka1: SPR global fit; for ka1: HEPES-TX buffer with 5% DMSO; for Model (best-fit kinetic model): SPR sensorgrams fit globally; for Kd: equilibrium dissociation constant calculated from the rate constants; for SPR binding signal: in words
[13] = molecular target: T1, MmpL3tb- and MmpL3tb-GFP-coated particles (Mycobacterium tuberculosis, UniProt P9WJV5); type: binding; details: 15 min at room temperature; various probe concentrations
T1 construct: His tag; made in house; host or cells: Mycobacterium smegmatis ΔmmpL3 carrying pMVGH1-mmpL3tb or pMVGH1-mmpL3tb-gfp

[14] = tested on: MmpL3tb-GFP in MsmgΔmmpL3/pMVGH1-mmpL3tb-GFP cells; type: cell-based; details: 2 μM probe, 4 h at 37° C.
[15] = tested on: MsmgΔmmpL3 expressing mmpL3tb LI89A; assay: microbe, parasite or virus in culture; type: cell-based; details: Mycolicibacterium smegmatis; Table 2; mutant LI89A; read-out: MIC
[16] = tested on: MsmgΔmmpL3 expressing mmpL3tb G253R; type: cell-based, Mycobacterium smegmatis
[17] = tested on: MsmgΔmmpL3 expressing mmpL3tb G253W; type: cell-based, Mycobacterium smegmatis
[18] = tested on: MsmgΔmmpL3 expressing mmpL3tb S591W; type: cell-based, Mycobacterium smegmatis
[19] = tested on: MsmgΔmmpL3 expressing mmpL3tb S591G; type: cell-based, Mycobacterium smegmatis
[20] = tested on: MsmgΔmmpL3 expressing mmpL3tb F644C/I/L; type: cell-based, Mycobacterium smegmatis
[21] = tested on: MsmgΔmmpL3 expressing mmpL3tb F644Y; type: cell-based, Mycobacterium smegmatis
[22] = tested on: MsmgΔmmpL3 expressing mmpL3tb V684I; type: cell-based, Mycobacterium smegmatis
[23] = tested on: MsmgΔmmpL3 expressing mmpL3tb V684W; type: cell-based, Mycobacterium smegmatis
Mtb = assay: MIC values against Mtb used for the PMF assays; type: cell-based, Mycobacterium tuberculosis; details: Mycobacterium tuberculosis; against Mtb; FIG. 8 legend; read-out: MIC values
MmpL3tb (MmpL3^WT) = MmpL3tb (MmpL3^WT) (Mycobacterium tuberculosis, UniProt P9WJV5); type: binding; details: 50, 100 and 200 μM
purified MmpL3-GFP = purified MmpL3-GFP (Mycobacterium tuberculosis, UniProt P9WJV5); type: binding; details: 2 μM Compound 2 with increasing inhibitor concentrations
[24] = tested on: transfer of mycolic acids onto their cell envelope acceptors in MsmgΔmmpL3/pMVGH1-mmpL3tb; type: cell-based; details: 3 hours
[25] = tested on: transmembrane potential (ΔΨ) of intact Mtb H37Rv mc^26206 cells; assay: Membrane potential measurement with DiOC2(3) in intact cells; type: cell-based, Mycobacterium tuberculosis
[26] = tested on: transmembrane electrochemical proton gradient (ΔpH) of intact Mtb H37Rv mc^26206 cells; assay: Electrochemical proton gradient measurement with CMFDA in intact cells; type: cell-based, Mycobacterium tuberculosis
[27] = tested on: Mtb H37Rv mc^26206 inverted membrane vesicles (IMVs); assay: Succinate-driven proton translocation assay (ACMA) in inverted membrane vesicles; type: biochemical, Mycobacterium tuberculosis; details: one and four times MIC against Mtb
Method: (§1) FIG. 19A: The reactions were initiated by adding 5 mM succinate. Upon stabilization of the signal, control compounds (INH, RIF, nigericin), the MmpL3 inhibitors or diluent (water, used for INH, or 0.2% DMSO, used for all other compounds) were added and proton translocation monitored fluorimetrically. MmpL3 inhibitors and controls were used at one and four times their MIC concentrations against Mtb. Shown are the averages and standard deviations (error bars) of triplicate measurements.
(§2) Succinate-driven proton translocation assays with the fluorescent substrate ACMA were conducted as previously described (see e.g., Li et al. J. Med. Chem. 2014, 57: 3126-3139) to determine the effect of MmpL3 inhibitors on the electrochemical proton gradient of Mtb H37Rv mc^26206 and E. coli BL21(DE3) IMVs. IMVs (0.18 mg/mL membrane proteins) were pre-incubated at 37° C. in 10 mM HEPES-KOH pH 7.5, 100 mM KCl, 5 mM MgCl2 containing 2 μM ACMA and the baseline monitored for 10 min with a fluorescence spectrophotometer (Victor X5, PerkinElmer). The reaction was then initiated by adding 5 mM succinate. Upon stabilization of the signal, control compounds (INH, RIF, nigericin), MmpL3 inhibitors, or diluent (0.2% DMSO or water) were added and proton translocation monitored fluorimetrically. The excitation and emission wavelengths were 410 nm and 480 nm, respectively.

E. coli BL21(DE3) IMVs = assay: as above; type: biochemical; details: 2 μg/mL
Method: as §1, §2

Chain of purified MmpL3tb protein (P9WJV5 whole entry): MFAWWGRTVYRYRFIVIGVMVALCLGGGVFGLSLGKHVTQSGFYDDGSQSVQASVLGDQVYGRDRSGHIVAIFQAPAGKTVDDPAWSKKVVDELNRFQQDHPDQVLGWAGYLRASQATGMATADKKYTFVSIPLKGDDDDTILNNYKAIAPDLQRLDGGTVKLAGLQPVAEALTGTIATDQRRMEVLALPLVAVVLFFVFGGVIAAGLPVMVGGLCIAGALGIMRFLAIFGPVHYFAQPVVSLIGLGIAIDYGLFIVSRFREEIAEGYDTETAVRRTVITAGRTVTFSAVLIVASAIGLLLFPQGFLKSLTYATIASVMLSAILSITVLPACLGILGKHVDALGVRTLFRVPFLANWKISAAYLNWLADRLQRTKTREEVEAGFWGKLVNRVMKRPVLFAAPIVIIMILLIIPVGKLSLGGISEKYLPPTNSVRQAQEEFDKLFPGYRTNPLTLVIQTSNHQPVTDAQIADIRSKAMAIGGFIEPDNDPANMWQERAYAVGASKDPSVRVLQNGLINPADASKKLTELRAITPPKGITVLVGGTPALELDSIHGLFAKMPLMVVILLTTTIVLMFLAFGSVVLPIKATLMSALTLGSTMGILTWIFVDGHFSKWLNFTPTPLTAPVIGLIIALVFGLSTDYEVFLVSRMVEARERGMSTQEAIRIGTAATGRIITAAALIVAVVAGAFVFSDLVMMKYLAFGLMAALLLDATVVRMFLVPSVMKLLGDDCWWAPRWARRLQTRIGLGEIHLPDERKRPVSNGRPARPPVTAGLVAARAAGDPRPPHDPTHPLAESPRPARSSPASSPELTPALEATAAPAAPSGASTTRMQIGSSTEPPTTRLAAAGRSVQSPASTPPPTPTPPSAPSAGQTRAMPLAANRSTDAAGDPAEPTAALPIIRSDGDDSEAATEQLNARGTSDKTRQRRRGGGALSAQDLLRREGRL
T1 sequence (P9WJV5 whole entry): as above
Chain of purified MmpL3-GFP (P9WJV5 whole entry): as above
Chain of MmpL3tb (MmpL3^WT) (P9WJV5 whole entry): as above

`CN(C)c1ccc2c(-c3ccc(C(=O)NCCCCCCn4cc(COc5ccc6[nH]c(C(=O)NC7CCCCCCC7)cc6c5)nn4)cc3C(=O)O)c3ccc(=[N+](C)C)cc-3oc2c1` [Compound 1] was tested. Which MIC ([1]; Tables 1A-1B) did it give?
Its MIC is 8 µg/mL.

And the MIC [2]?
Its MIC is >32^b μg/mL.

And the MIC [3]?
The MIC was >32^b μg/mL.

And the MIC [4]?
Its MIC is >32^b μg/mL.

And the MIC [5]?
Its MIC is >32^b μg/mL.

What about the MIC [6] of the same compound?
The MIC was >32^b μg/mL.

What about the MIC [7] of the same compound?
Its MIC is >32^b μg/mL.

What about the MIC [8] of the same compound?
The MIC was 32^b μg/mL.

What about the MIC [9] of the same compound?
Its MIC is >32^b μg/mL.

What about the MIC [10] of the same compound?
Its MIC is 16 µg/mL.

And the MIC [11]?
Its MIC is >32^b μg/mL.

And the MIC [12]?
The MIC was >32^b μg/mL.

What about the ka2 (purified MmpL3tb protein) of the same compound?
Its ka2 is 0.039 1/RU*s.

What about the kd1 (purified MmpL3tb protein) of the same compound?
The kd1 was 0.19 s⁻¹.

What about the kd2 (purified MmpL3tb protein) of the same compound?
The kd2 was 0.0273 s⁻¹.

What about the ka1 (purified MmpL3tb protein) of the same compound?
The ka1 was 2138.3 M⁻¹ s⁻¹.

And the “Model (best-fit kinetic model)” value (purified MmpL3tb protein)?
Its value is “Two-state reaction”.

What about the Kd (purified MmpL3tb protein; read-out: KD1) of the same compound?
The Kd was 36.1 µM.

What about the SPR binding signal (purified MmpL3tb protein) of the same compound?
The SPR binding signal was “strong SPR signals”.

And the “probe binding to coated particles (MFI)” value [13]?
Its value is “concentration-dependent binding”.

And the “colocalization with MmpL3tb-GFP” value [14]?
The value was “colocalization of the probes with MmpL3tb-GFP”.

Which results are given for `C[C@@H]1C(NC(=O)c2cc3cc(OCc4cn(CCCCCCNC(=O)c5ccc(-c6c7ccc(=[N+](C)C)cc-7oc7cc(N(C)C)ccc67)c(C(=O)O)c5)nn4)ccc3[nH]2)C[C@H]2C[C@@H]1C2(C)C` (stereo partly shown) [Compound 2]?
MIC ([1]; Tables 1A-1B): 4 µg/mL; MIC [2]: 8 µg/mL; MIC [3]: 8 µg/mL; MIC [4]: 4 µg/mL; MIC [5]: 8 µg/mL; MIC [6]: 4 µg/mL; MIC [7]: 16^b μg/mL; MIC [8]: 4 µg/mL; MIC [9]: 8 µg/mL; MIC [10]: 8 µg/mL; MIC [11]: 4 µg/mL; MIC [12]: 4 µg/mL; ka2 (purified MmpL3tb protein): 540.582 1/RU*s; kd1 (purified MmpL3tb protein): 0.02 s⁻¹; kd2 (purified MmpL3tb protein): 0.1556 s⁻¹; ka1 (purified MmpL3tb protein): 36380.1 M⁻¹ s⁻¹; Model (best-fit kinetic model) (purified MmpL3tb protein): Heterogeneous ligand; Kd (purified MmpL3tb protein; read-out: KD1): 0.5 µM; Kd (purified MmpL3tb protein; read-out: KD2): 288 µM; SPR binding signal (purified MmpL3tb protein): strong SPR signals; probe binding to coated particles (MFI) [13]: concentration-dependent binding; colocalization with MmpL3tb-GFP [14]: colocalization of the probes with MmpL3tb-GFP

For `CC(C)=CCC/C(C)=C/CNCCNC1C2CC3CC(C2)CC1C3` (stereo not shown) [SQ109], which MIC ([1]; Table 2) is on record?
The MIC was 0.31 µg/mL (≈ 0.938 µM).

What about the MIC ([1]; Tables 1A-1B) of the same compound?
The MIC was 0.39 µg/mL (≈ 1.18 µM).

What about the MIC [3] of the same compound?
Its MIC is 1.25^b μg/mL and 1.25 μg/mL.

And the MIC [4]?
The MIC was 3.13^a μg/mL.

And the MIC [5]?
The MIC was 6.25^a μg/mL.

And the MIC [6]?
Its MIC is 0.78 µg/mL (≈ 2.36 µM).

What about the MIC [7] of the same compound?
Its MIC is 0.78 µg/mL (≈ 2.36 µM).

What about the MIC [8] of the same compound?
The MIC was 1.56^b μg/mL.

What about the MIC [10] of the same compound?
Its MIC is 1.56^b μg/mL.

What about the MIC [11] of the same compound?
Its MIC is 0.39 μg/mL and 0.31-0.62^ μg/mL.

And the MIC [15]?
The MIC was 0.31 to 0.62 µg/mL (≈ 0.938 to 1.88 µM).

What about the MIC [16] of the same compound?
The MIC was 0.31-0.62^c μg/mL.

What about the MIC [17] of the same compound?
Its MIC is 0.15-0.3^d μg/mL.

What about the MIC [18] of the same compound?
The MIC was 0.31^c μg/mL.

What about the MIC [19] of the same compound?
Its MIC is 0.31^c μg/mL.

What about the MIC [20] of the same compound?
Its MIC is 0.62-1.25^ μg/mL.

And the MIC [21]?
Its MIC is 0.15-0.31^c μg/mL.

What about the MIC [22] of the same compound?
Its MIC is 0.31-0.62^ μg/mL.

What about the MIC [23] of the same compound?
Its MIC is 0.07-0.15^d μg/mL.

What about the MIC (Mtb) of the same compound?
The MIC was 2.36 µM (≈ 0.78 µg/mL).

What about the ka2 (purified MmpL3tb protein) of the same compound?
The ka2 was 0.025 1/RU*s.

What about the kd1 (purified MmpL3tb protein) of the same compound?
The kd1 was 2.32 s⁻¹.

What about the kd2 (purified MmpL3tb protein) of the same compound?
The kd2 was 0.0436 s⁻¹.

What about the ka1 (purified MmpL3tb protein) of the same compound?
The ka1 was 1208.2 M⁻¹ s⁻¹.

What about the “Model (best-fit kinetic model)” value (purified MmpL3tb protein) of the same compound?
The value was “Two-state reaction”.

What about the SPR binding signal (purified MmpL3tb protein) of the same compound?
The SPR binding signal was “strong SPR signals”.

What about the BLI binding signal (MmpL3tb (MmpL3^WT)) of the same compound?
Its BLI binding signal is “consistently bound to MmpL3tb with the strongest signals”.

And the “displacement of Compound 2 from purified MmpL3tb” value (purified MmpL3-GFP)?
The value was “not significant”.

What about the “inhibition of transfer of mycolic acids to cell envelope acceptors” value [24] of the same compound?
The value was “actually targeted MmpL3tb in the Msmg recombinant system”.

What about the “effect on membrane potential (ΔΨ)” value [25] of the same compound?
Its value is “dissipated ΔΨ in a concentration-dependent manner”.

And the “effect on electrochemical proton gradient (ΔpH)” value [26]?
Its value is “collapsed ΔpH”.

And the “effect on ΔpH of Mtb IMVs” value [27]?
Its value is “increase of fluorescence intensity indicative of ΔpH collapse”.

And the “effect on ΔpH of E. coli IMVs” value (E. coli BL21(DE3) IMVs)?
The value was “collapse the ΔpH of E. coli IMVs; also recorded: similarly dissipated the pH gradient of IMVs prepared from E. coli”.
